Assay results from ChEMBL document CHEMBL3400131, “Discovery of potent and selective urea-based ROCK inhibitors: Exploring the inhibitor's potency and ROCK2/PKA selectivity by 3D-QSAR, molecular docking and molecular dynamics simulations” (Bioorg Med Chem, 2015).

Legend:
[1] = Inhibition of recombinant human full length PKA using kemptide substrate after 80 mins by luminescence mode
[2] = target: Rho-associated protein kinase 2 (Homo sapiens, UniProt O75116); assay: Inhibition of ROCK2 (unknown origin) using STK2 substrate after 4 hrs by HTRF mode
Chain of Rho-associated protein kinase 2 (O75116 whole entry): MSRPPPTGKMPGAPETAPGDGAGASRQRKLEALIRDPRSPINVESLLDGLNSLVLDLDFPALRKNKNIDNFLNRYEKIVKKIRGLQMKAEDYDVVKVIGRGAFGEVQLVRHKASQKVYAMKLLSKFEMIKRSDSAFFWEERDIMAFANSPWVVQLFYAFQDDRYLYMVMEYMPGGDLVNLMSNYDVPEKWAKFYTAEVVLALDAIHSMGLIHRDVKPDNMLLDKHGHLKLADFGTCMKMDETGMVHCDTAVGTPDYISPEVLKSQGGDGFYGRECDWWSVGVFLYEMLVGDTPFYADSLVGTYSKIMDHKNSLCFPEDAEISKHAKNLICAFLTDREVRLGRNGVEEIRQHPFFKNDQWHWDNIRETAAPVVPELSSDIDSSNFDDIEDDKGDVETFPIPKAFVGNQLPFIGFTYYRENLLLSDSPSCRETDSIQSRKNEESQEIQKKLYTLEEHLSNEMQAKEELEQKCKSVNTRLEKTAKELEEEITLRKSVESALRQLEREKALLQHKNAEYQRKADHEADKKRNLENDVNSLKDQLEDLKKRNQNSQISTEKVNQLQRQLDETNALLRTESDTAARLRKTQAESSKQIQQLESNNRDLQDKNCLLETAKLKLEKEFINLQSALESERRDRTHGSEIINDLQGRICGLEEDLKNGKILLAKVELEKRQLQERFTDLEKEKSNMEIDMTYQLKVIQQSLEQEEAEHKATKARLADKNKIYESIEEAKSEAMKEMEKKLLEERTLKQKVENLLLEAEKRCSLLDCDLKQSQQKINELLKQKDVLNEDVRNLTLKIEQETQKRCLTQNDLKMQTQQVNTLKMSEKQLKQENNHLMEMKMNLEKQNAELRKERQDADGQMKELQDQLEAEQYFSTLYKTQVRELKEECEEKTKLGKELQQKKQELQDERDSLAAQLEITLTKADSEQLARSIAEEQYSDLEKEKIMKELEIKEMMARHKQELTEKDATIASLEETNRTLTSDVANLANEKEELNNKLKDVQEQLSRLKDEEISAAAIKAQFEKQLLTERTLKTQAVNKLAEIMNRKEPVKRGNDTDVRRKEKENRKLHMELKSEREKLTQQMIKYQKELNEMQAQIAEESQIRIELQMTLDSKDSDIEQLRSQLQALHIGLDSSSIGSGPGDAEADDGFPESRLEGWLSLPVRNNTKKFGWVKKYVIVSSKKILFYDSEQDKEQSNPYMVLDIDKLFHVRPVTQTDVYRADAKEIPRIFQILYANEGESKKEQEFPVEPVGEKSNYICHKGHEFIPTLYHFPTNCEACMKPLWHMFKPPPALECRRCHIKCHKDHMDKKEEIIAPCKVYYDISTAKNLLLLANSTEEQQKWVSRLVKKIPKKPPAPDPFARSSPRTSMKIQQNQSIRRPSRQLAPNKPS

| IC50 [1] [nM] | IC50 [2] [nM] | SMILES |
| --- | --- | --- |
| 10500 |  | COCCN(Cc1cccc(OC)c1)C(=O)Nc1ccc(-c2cn[nH]c2)cc1 |
| 3900 |  | COc1cccc(CNC(=O)Nc2ccc(-c3cn[nH]c3)cc2OCCN(C)C)c1 |
| 313 |  | COc1cccc(CNC(=O)Nc2ccc(-c3cn[nH]c3)cc2Cl)c1 |
| 338 |  | COc1cccc(CN(CCN2CCCCC2)C(=O)Nc2ccc(-c3cn[nH]c3)cc2)c1 |
| 1020 |  | O=C(Nc1ccc(-c2cn[nH]c2)cc1F)N(CCO)Cc1ccccc1 |
| 438 |  | O=C(Nc1ccc(-c2cn[nH]c2)cc1)NC(CCO)c1ccccc1 (stereo unspecified) |
| 72 |  | COc1cccc(CN(CCN)C(=O)Nc2ccc(-c3cn[nH]c3)cc2)c1 |
| 38 |  | COc1cccc(CNC(=O)Nc2ccc(-c3cn[nH]c3)cc2N(C)C)c1 |
| 518 |  | COc1ccc(CNC(=O)Nc2ccc(-c3cn[nH]c3)cc2)cc1F |
| 238 |  | CN(C)CCC(NC(=O)Nc1ccc(-c2cn[nH]c2)cc1)c1ccccc1 (stereo unspecified) |
| 456 |  | COc1cccc(CN(CCN(C)C)C(=O)Nc2ccc(-c3cn[nH]c3)cc2)c1 |
| 1820 |  | COc1cccc(CNC(=O)Nc2ccc(-c3cn[nH]c3)cc2F)c1 |
| 3570 |  | COc1cccc(CNC(=O)Nc2ccc(-c3cn[nH]c3)cc2N(C)CCN(C)C)c1 |
| 322 |  | O=C(NCc1cccc(F)c1)Nc1ccc(-c2cn[nH]c2)cc1 |
| 4670 |  | CCN(Cc1cccc(OC)c1)C(=O)Nc1ccc(-c2cn[nH]c2)cc1 |
| > 20000 |  | COc1ccc(CNC(=O)Nc2ccc(-c3cn[nH]c3)cc2)cc1OC |
| 3380 | 8 | CC(C)N(Cc1ccccc1)C(=O)Nc1ccc(-c2cn[nH]c2)cc1 |
| 12000 | 3320 | CNC(=O)N(CCCN(C)C)c1ccc(-c2cn[nH]c2)cc1 |
| > 20000 |  | COc1cccc(CN(C)C(=O)Nc2ccc(-c3cn[nH]c3)cc2OCCN2CCCC2)c1 |
| > 20000 | 611 | CNC(=O)N(CCO)c1ccc(-c2cn[nH]c2)cc1 |
| > 20000 |  | O=C(NCC1CCCCC1)Nc1ccc(-c2cn[nH]c2)cc1 |
| 590 |  | O=C(NCc1ccccc1)Nc1ccc(-c2cn[nH]c2)cc1 |
| 3100 |  | O=C(NCCc1ccccc1)Nc1ccc(-c2cn[nH]c2)cc1 |

| IC50 [1] [nM] | IC50 [2] [nM] | SMILES |
| --- | --- | --- |
| 13500 |  | COc1cccc(OC)c1CNC(=O)Nc1ccc(-c2cn[nH]c2)cc1 |
| 615 | < 1 | O=C(Nc1ccc(-c2cn[nH]c2)cc1OCCO)N(CCO)Cc1ccccc1 |
| 744 | 188 | COc1cccc(CNC(=O)Nc2ccc(-c3ncnc4[nH]ccc34)cc2)c1 |
| 389 |  | O=C(Nc1ccc(-c2cn[nH]c2)cc1)NC(CO)c1ccccc1 (stereo unspecified) |
| 405 |  | Nc1cccc(CNC(=O)Nc2ccc(-c3cn[nH]c3)cc2)c1 |
| 454 |  | O=C(NCc1cccc(Cl)c1)Nc1ccc(-c2cn[nH]c2)cc1 |
| 654 |  | COc1ccccc1CNC(=O)Nc1ccc(-c2cn[nH]c2)cc1 |
| > 20000 |  | O=C(NCCCc1ccccc1)Nc1ccc(-c2cn[nH]c2)cc1 |
| 5140 |  | COc1cccc(CNC(=O)Nc2ccc(-c3ccnc(N)c3)cc2)c1 |
| 894 | 8.5 | CN(C)CCN(C)c1cc(-c2cn[nH]c2)ccc1NC(=O)NCc1ccccc1 |
| 1810 |  | COc1cccc(CN(C)C(=O)Nc2ccc(-c3cn[nH]c3)cc2)c1 |
| 2300 |  | COc1cccc(CNC(=O)Nc2ccc(-c3ccncc3)cc2)c1 |
| 882 |  | COc1cccc(CNC(=O)Nc2ccc(-c3cn[nH]c3)cc2)c1 |
| 8000 |  | O=C(Nc1ccc(-c2cn[nH]c2)cc1)N1CCc2ccccc2C1 |
| > 20000 |  | COc1ccc(OC)c(CNC(=O)Nc2ccc(-c3cn[nH]c3)cc2)c1 |
| 1030 |  | COc1cccc(CNC(=O)Nc2ccc(-c3ccnc(N)n3)cc2)c1 |
| 541 |  | COc1cccc(CN(CCN2CCCC2)C(=O)Nc2ccc(-c3cn[nH]c3)cc2)c1 |
| 2630 |  | Cc1cccc(CNC(=O)Nc2ccc(-c3cn[nH]c3)cc2)c1 |
| > 20000 |  | COc1cccc(CNC(=O)Nc2ccc(-c3cn[nH]c3)cc2)c1OC |
| 1700 |  | COc1cccc(CN(C(=O)Nc2ccc(-c3cn[nH]c3)cc2)C2CC2)c1 |
| > 20000 |  | COc1cc(CNC(=O)Nc2ccc(-c3cn[nH]c3)cc2)cc(OC)c1 |
| 18100 |  | CCN(Cc1cccc(OC)c1)C(=O)Nc1ccc(-c2cn[nH]c2)cc1OCCN1CCCC1 |
| 11200 |  | COc1ccc(CNC(=O)Nc2ccc(-c3cn[nH]c3)cc2)c(OC)c1 |

| IC50 [1] [nM] | IC50 [2] [nM] | SMILES |
| --- | --- | --- |
| 18400 |  | COc1cccc(CN(C(=O)Nc2ccc(-c3cn[nH]c3)cc2)C(C)C)c1 |
| 3820 |  | COc1cccc(CN(CCN2CCOCC2)C(=O)Nc2ccc(-c3cn[nH]c3)cc2)c1 |
| 5220 |  | COc1cccc(CN(C)C(=O)Nc2ccc(-c3cn[nH]c3)cc2OCCN(C)C)c1 |
| 822 |  | COc1cccc(CN(CCCN2CCCCC2)C(=O)Nc2ccc(-c3cn[nH]c3)cc2)c1 |
| 816 |  | COc1cccc(CNC(=O)Nc2ccc(-c3c[nH]nc3C)cc2)c1 |
| 2730 |  | COc1cccc(CNC(=O)Nc2ccc(-c3cn[nH]c3)cc2OCCN2CCCC2)c1 |
| 2990 |  | COc1cccc(CN(CCO)C(=O)Nc2ccc(-c3cn[nH]c3)cc2)c1 |
| 724 |  | COc1cccc(CN(CCCN2CCOCC2)C(=O)Nc2ccc(-c3cn[nH]c3)cc2)c1 |
| 4870 |  | COc1cccc(C(CCO)NC(=O)Nc2ccc(-c3cn[nH]c3)cc2)c1 (stereo unspecified) |
| > 20000 |  | CCN(Cc1cccc(OC)c1)C(=O)Nc1ccc(-c2cn[nH]c2)cc1OCCN(C)C |
| 4200 | 2980 | CNC(=O)N(CCN(C)C)c1ccc(-c2cn[nH]c2)cc1 |
| 580 |  | O=C(Nc1ccc(-c2cn[nH]c2)cc1)NC(CCO)c1cccc(F)c1 (stereo unspecified) |
| 6700 |  | CCN(Cc1cccc(OC)c1)C(=O)Nc1ccc(-c2cn[nH]c2)cc1O[C@H]1CCN(C)C1 |
| 468 | 5.6 | CN(C)CCSc1cc(-c2cn[nH]c2)ccc1NC(=O)NCc1ccccc1 |
| 5000 |  | CCN(Cc1cccc(OC)c1)C(=O)Nc1ccc(-c2cn[nH]c2)cc1N(C)CCN(C)C |
| 610 |  | O=C(Nc1ccc(-c2cn[nH]c2)cc1)N(CCO)Cc1ccccc1 |
| 228 |  | COc1cccc(CN(CCCN2CCCC2)C(=O)Nc2ccc(-c3cn[nH]c3)cc2)c1 |
| 163 |  | COc1cccc(CNC(=O)Nc2ccc(-c3cn[nH]c3)cc2OC)c1 |
| 4620 |  | COc1cccc(CN(C)C(=O)Nc2ccc(-c3cn[nH]c3)cc2N(C)CCN(C)C)c1 |
| > 20000 | 87 | CNC(=O)N(C)c1ccc(-c2cn[nH]c2)cc1 |
|  | 170 | CN(C)CCOc1cc(-c2cn[nH]c2)ccc1NC(=O)N(CCN(C)C)Cc1ccccc1 |
